The numbers were not newly measured in US6682747B1 (Boehringer Ingelheim Pharma KG, priority 1998, dated 2004), which cites them from elsewhere.

For this data set the following is noted: buffered aqueous systems, pH 2-4.

Consider `Cc1cnc(NC(=O)C2=C(O)c3ccccc3S(=O)(=O)N2C)s1` [meloxicam], for which the solubility result was “less than 0.5 μg/ml”.
